± gives the uncertainty stated by the source.
Test: xn = mol fraction of the nth substance listed

CCOCCO + O
viscosity [mPa·s]
Conditions	101 kPa	101.33 kPa
293.15 K, x1 = 0.02202	1.422 ± 0.14	–
293.15 K, x1 = 0.04761	2.02 ± 0.2	–
293.15 K, x1 = 0.07883	2.731 ± 0.27	–
293.15 K, x1 = 0.1177	3.402 ± 0.34	–
293.15 K, x1 = 0.1666	3.943 ± 0.4	–
293.15 K, x1 = 0.2304	4.205 ± 0.42	–
293.15 K, x1 = 0.318	4.219 ± 0.42	–
293.15 K, x1 = 0.4441	3.838 ± 0.38	–
293.15 K, x1 = 0.5303	3.471 ± 0.35	–
293.15 K, x1 = 0.6418	3.081 ± 0.31	–
293.15 K, x1 = 0.7202	2.836 ± 0.28	–
293.15 K, x1 = 0.8271	2.502 ± 0.25	–
293.15 K, x1 = 0.9078	2.27 ± 0.23	–
298.15 K, x1 = 0.0104	–	1.04 ± 0.06
298.15 K, x1 = 0.0217	–	1.25 ± 0.07
298.15 K, x1 = 0.0341	–	1.44 ± 0.08
298.15 K, x1 = 0.0476	–	1.7 ± 0.09
298.15 K, x1 = 0.0625	–	1.97 ± 0.1
298.15 K, x1 = 0.0789	–	2.26 ± 0.11
298.15 K, x1 = 0.0972	–	2.54 ± 0.12
298.15 K, x1 = 0.1176	–	2.8 ± 0.13
298.15 K, x1 = 0.1406	–	3.05 ± 0.14
298.15 K, x1 = 0.1666	–	3.24 ± 0.15
298.15 K, x1 = 0.1964	–	3.38 ± 0.15
298.15 K, x1 = 0.2307	–	3.48 ± 0.16
298.15 K, x1 = 0.2707	–	3.47 ± 0.16
298.15 K, x1 = 0.3181	–	3.45 ± 0.15
298.15 K, x1 = 0.3749	–	3.33 ± 0.15
298.15 K, x1 = 0.4443	–	3.14 ± 0.14
298.15 K, x1 = 0.5311	–	2.89 ± 0.12
298.15 K, x1 = 0.6428	–	2.58 ± 0.11
298.15 K, x1 = 0.7916	–	2.19 ± 0.09
298.15 K, x2 = 0.11	–	1.991 ± 0.024
298.15 K, x2 = 0.2089	–	2.215 ± 0.026
298.15 K, x2 = 0.294	–	2.441 ± 0.028
298.15 K, x2 = 0.4058	–	2.765 ± 0.032
298.15 K, x2 = 0.5043	–	3.031 ± 0.034
298.15 K, x2 = 0.5995	–	3.311 ± 0.037
298.15 K, x2 = 0.7033	–	3.504 ± 0.039
298.15 K, x2 = 0.8037	–	3.376 ± 0.038
298.15 K, x2 = 0.902	–	2.55 ± 0.029
303.15 K, x1 = 0.0104	–	0.92 ± 0.05
303.15 K, x1 = 0.0217	–	1.11 ± 0.06
303.15 K, x1 = 0.02202	1.097 ± 0.11	–
303.15 K, x1 = 0.0341	–	1.27 ± 0.07
303.15 K, x1 = 0.0476	–	1.5 ± 0.08
303.15 K, x1 = 0.04761	1.485 ± 0.15	–
303.15 K, x1 = 0.0625	–	1.72 ± 0.09
303.15 K, x1 = 0.07883	1.928 ± 0.19	–
303.15 K, x1 = 0.0789	–	1.96 ± 0.1
303.15 K, x1 = 0.0972	–	2.18 ± 0.1
303.15 K, x1 = 0.1176	–	2.4 ± 0.11
303.15 K, x1 = 0.1177	2.355 ± 0.24	–
303.15 K, x1 = 0.1406	–	2.61 ± 0.12
303.15 K, x1 = 0.1666	2.703 ± 0.27	2.78 ± 0.13
303.15 K, x1 = 0.1964	–	2.9 ± 0.13
303.15 K, x1 = 0.2304	2.92 ± 0.29	–
303.15 K, x1 = 0.2307	–	3 ± 0.14
303.15 K, x1 = 0.2707	–	3.03 ± 0.14
303.15 K, x1 = 0.318	2.951 ± 0.3	–
303.15 K, x1 = 0.3181	–	3.02 ± 0.13
303.15 K, x1 = 0.3749	–	2.93 ± 0.13
303.15 K, x1 = 0.4443	–	2.77 ± 0.12
303.15 K, x1 = 0.5303	2.547 ± 0.26	–
303.15 K, x1 = 0.5311	–	2.56 ± 0.11
303.15 K, x1 = 0.6418	2.28 ± 0.23	–
303.15 K, x1 = 0.6428	–	2.31 ± 0.1
303.15 K, x1 = 0.7202	2.126 ± 0.21	–
303.15 K, x1 = 0.7916	–	1.97 ± 0.08
303.15 K, x1 = 0.8271	1.912 ± 0.19	–
303.15 K, x1 = 0.9078	1.764 ± 0.18	–
308.15 K, x1 = 0.1406	–	2.24 ± 0.1
308.15 K, x1 = 0.1666	–	2.38 ± 0.11
308.15 K, x1 = 0.1964	–	2.49 ± 0.11
308.15 K, x1 = 0.2307	–	2.58 ± 0.12
308.15 K, x1 = 0.2707	–	2.62 ± 0.12
308.15 K, x1 = 0.3181	–	2.61 ± 0.12
308.15 K, x1 = 0.3749	–	2.55 ± 0.11
308.15 K, x1 = 0.4443	–	2.43 ± 0.11
308.15 K, x1 = 0.5311	–	2.26 ± 0.1
308.15 K, x1 = 0.6428	–	2.04 ± 0.09
308.15 K, x1 = 0.7916	–	1.76 ± 0.07
308.15 K, x2 = 0.1041	–	1.418 ± 0.068
308.15 K, x2 = 0.1944	–	1.621 ± 0.076
308.15 K, x2 = 0.2933	–	1.785 ± 0.083
308.15 K, x2 = 0.4988	–	2.148 ± 0.099
308.15 K, x2 = 0.5964	–	2.307 ± 0.11
308.15 K, x2 = 0.699	–	2.385 ± 0.11
308.15 K, x2 = 0.7918	–	2.32 ± 0.11
308.15 K, x2 = 0.8469	–	2.111 ± 0.097
308.15 K, x2 = 0.8976	–	1.787 ± 0.084
308.15 K, x2 = 0.9491	–	1.279 ± 0.062
313.15 K, x1 = 0.02202	0.8665 ± 0.087	–
313.15 K, x1 = 0.04761	1.14 ± 0.11	–
313.15 K, x1 = 0.07883	1.456 ± 0.15	–
313.15 K, x1 = 0.1177	1.727 ± 0.17	–
313.15 K, x1 = 0.1666	1.967 ± 0.2	–
313.15 K, x1 = 0.2304	2.124 ± 0.21	–
313.15 K, x1 = 0.318	2.14 ± 0.21	–
313.15 K, x1 = 0.4441	2.011 ± 0.2	–
313.15 K, x1 = 0.5303	1.9 ± 0.19	–
313.15 K, x1 = 0.6418	1.731 ± 0.17	–
313.15 K, x1 = 0.7202	1.614 ± 0.16	–
313.15 K, x1 = 0.8271	1.491 ± 0.15	–
313.15 K, x1 = 0.9078	1.399 ± 0.14	–
323.15 K, x1 = 0.02202	0.6974 ± 0.07	–
323.15 K, x1 = 0.04761	0.8748 ± 0.088	–
323.15 K, x1 = 0.07883	1.105 ± 0.11	–
323.15 K, x1 = 0.1177	1.32 ± 0.13	–
323.15 K, x1 = 0.1666	1.479 ± 0.15	–
323.15 K, x1 = 0.2304	1.613 ± 0.16	–
323.15 K, x1 = 0.318	1.656 ± 0.17	–
323.15 K, x1 = 0.4441	1.591 ± 0.16	–
323.15 K, x1 = 0.5303	1.514 ± 0.15	–
323.15 K, x1 = 0.6418	1.398 ± 0.14	–
323.15 K, x1 = 0.7202	1.324 ± 0.13	–
323.15 K, x1 = 0.8271	1.212 ± 0.12	–
323.15 K, x1 = 0.9078	1.133 ± 0.11	–

Reference: the CheMixHub viscosity set
